Numbers after ± are expanded uncertainties.
Assay: xn = mol fraction of the nth substance listed
Settings: 100 kPa, Liquid; for mass density: Vibrating tube method; for speed of sound: Frequency=3 MHz, Sing-around technique in a fixed-path interferometer

Question: Which mass density (303.15 K, x2 = 0) does the source give for `CCCCCCCCN1CCCC1=O` [N-octyl-2-pyrrolidone] + CCCCn1cc[n+](C)c1.F[B-](F)(F)F here?
Answer: The mass density was 914.8 ± 1 kg/m3.

Question: What about the mass density (303.15 K, x2 = 0.1084) of the same molecule?
Answer: Its mass density is 941.91 ± 1 kg/m3.

Question: What about the mass density (303.15 K, x2 = 0.196) of the same molecule?
Answer: Its mass density is 961.89 ± 1 kg/m3.

Question: And the mass density (303.15 K, x2 = 0.3023)?
Answer: The mass density was 987.89 ± 1 kg/m3.

Question: What about the mass density (303.15 K, x2 = 0.4087) of the same molecule?
Answer: The mass density was 1016.54 ± 1 kg/m3.

Question: And the mass density (303.15 K, x2 = 0.5064)?
Answer: Its mass density is 1041.86 ± 1 kg/m3.

Question: And the mass density (303.15 K, x2 = 0.6027)?
Answer: The mass density was 1070.71 ± 1 kg/m3.

Question: And the mass density (303.15 K, x2 = 0.6981)?
Answer: Its mass density is 1099.98 ± 1 kg/m3.

Question: And the mass density (303.15 K, x2 = 0.7966)?
Answer: The mass density was 1129.48 ± 1 kg/m3.

Question: And the mass density (303.15 K, x2 = 0.8978)?
Answer: Its mass density is 1161.29 ± 1.1 kg/m3.

Question: And the speed of sound (308.15 K, x2 = 0)?
Answer: The speed of sound was 1415.3 ± 6.1 m/s.

Question: And the speed of sound (308.15 K, x2 = 0.1084)?
Answer: Its speed of sound is 1421.6 ± 6.1 m/s.

Question: And the speed of sound (308.15 K, x2 = 0.196)?
Answer: The speed of sound was 1424.9 ± 6.1 m/s.

Question: What about the speed of sound (308.15 K, x2 = 0.3023) of the same molecule?
Answer: Its speed of sound is 1429.4 ± 6.1 m/s.

Question: And the speed of sound (308.15 K, x2 = 0.4087)?
Answer: The speed of sound was 1436.8 ± 6.1 m/s.

Question: What about the speed of sound (308.15 K, x2 = 0.5064) of the same molecule?
Answer: Its speed of sound is 1444.4 ± 6.1 m/s.

Question: What about the speed of sound (308.15 K, x2 = 0.6027) of the same molecule?
Answer: The speed of sound was 1457.4 ± 6.1 m/s.

Question: What about the speed of sound (308.15 K, x2 = 0.6981) of the same molecule?
Answer: The speed of sound was 1472.3 ± 6.1 m/s.

Question: What about the speed of sound (308.15 K, x2 = 0.7966) of the same molecule?
Answer: Its speed of sound is 1491.4 ± 6.1 m/s.

Question: What about the speed of sound (308.15 K, x2 = 0.8978) of the same molecule?
Answer: Its speed of sound is 1514.9 ± 6.1 m/s.

Question: And the mass density (308.15 K, x2 = 0)?
Answer: The mass density was 911.14 ± 1 kg/m3.

Question: What about the mass density (308.15 K, x2 = 0.1084) of the same molecule?
Answer: The mass density was 938.28 ± 1 kg/m3.

Question: And the mass density (308.15 K, x2 = 0.196)?
Answer: Its mass density is 958.26 ± 1 kg/m3.

Question: And the mass density (308.15 K, x2 = 0.3023)?
Answer: The mass density was 984.27 ± 1 kg/m3.

Question: What about the mass density (308.15 K, x2 = 0.4087) of the same molecule?
Answer: Its mass density is 1012.96 ± 1 kg/m3.

Question: What about the mass density (308.15 K, x2 = 0.5064) of the same molecule?
Answer: Its mass density is 1038.25 ± 1 kg/m3.

Question: And the mass density (308.15 K, x2 = 0.6027)?
Answer: Its mass density is 1067.16 ± 1 kg/m3.

Question: What about the mass density (308.15 K, x2 = 0.6981) of the same molecule?
Answer: The mass density was 1096.42 ± 1 kg/m3.

Question: What about the mass density (308.15 K, x2 = 0.7966) of the same molecule?
Answer: Its mass density is 1125.91 ± 1 kg/m3.

Question: And the mass density (308.15 K, x2 = 0.8978)?
Answer: The mass density was 1157.71 ± 1.1 kg/m3.

Question: And the speed of sound (313.15 K, x2 = 0)?
Answer: The speed of sound was 1398 ± 6.1 m/s.

Question: And the speed of sound (313.15 K, x2 = 0.1084)?
Answer: Its speed of sound is 1405 ± 6.1 m/s.

Question: And the speed of sound (313.15 K, x2 = 0.196)?
Answer: Its speed of sound is 1408.7 ± 6.1 m/s.

Question: What about the speed of sound (313.15 K, x2 = 0.3023) of the same molecule?
Answer: The speed of sound was 1413.7 ± 6.1 m/s.

Question: What about the speed of sound (313.15 K, x2 = 0.4087) of the same molecule?
Answer: Its speed of sound is 1421.6 ± 6.1 m/s.

Question: And the speed of sound (313.15 K, x2 = 0.5064)?
Answer: Its speed of sound is 1429.7 ± 6.1 m/s.

Question: And the speed of sound (313.15 K, x2 = 0.6027)?
Answer: The speed of sound was 1443.3 ± 6.1 m/s.

Question: What about the speed of sound (313.15 K, x2 = 0.6981) of the same molecule?
Answer: Its speed of sound is 1458.8 ± 6.1 m/s.

Question: What about the speed of sound (313.15 K, x2 = 0.7966) of the same molecule?
Answer: Its speed of sound is 1478.6 ± 6.1 m/s.

Question: And the speed of sound (313.15 K, x2 = 0.8978)?
Answer: The speed of sound was 1502.7 ± 6.1 m/s.

Question: And the mass density (313.15 K, x2 = 0)?
Answer: The mass density was 907.49 ± 1 kg/m3.

Question: What about the mass density (313.15 K, x2 = 0.1084) of the same molecule?
Answer: Its mass density is 934.64 ± 1 kg/m3.

Question: And the mass density (313.15 K, x2 = 0.196)?
Answer: Its mass density is 954.63 ± 1 kg/m3.

Question: And the mass density (313.15 K, x2 = 0.3023)?
Answer: The mass density was 980.66 ± 1 kg/m3.

Question: And the mass density (313.15 K, x2 = 0.4087)?
Answer: The mass density was 1009.39 ± 1 kg/m3.

Question: What about the mass density (313.15 K, x2 = 0.5064) of the same molecule?
Answer: Its mass density is 1034.65 ± 1 kg/m3.

Question: And the mass density (313.15 K, x2 = 0.6027)?
Answer: Its mass density is 1063.63 ± 1 kg/m3.

Question: And the mass density (313.15 K, x2 = 0.6981)?
Answer: The mass density was 1092.9 ± 1 kg/m3.

Question: What about the mass density (313.15 K, x2 = 0.7966) of the same molecule?
Answer: Its mass density is 1122.36 ± 1 kg/m3.

Question: And the mass density (313.15 K, x2 = 0.8978)?
Answer: Its mass density is 1154.16 ± 1.1 kg/m3.

Question: What about the speed of sound (318.15 K, x2 = 0) of the same molecule?
Answer: The speed of sound was 1380.9 ± 6.1 m/s.

Question: What about the speed of sound (318.15 K, x2 = 0.1084) of the same molecule?
Answer: Its speed of sound is 1388.6 ± 6.1 m/s.

Question: And the speed of sound (318.15 K, x2 = 0.196)?
Answer: Its speed of sound is 1392.7 ± 6.1 m/s.

Question: What about the speed of sound (318.15 K, x2 = 0.3023) of the same molecule?
Answer: The speed of sound was 1398.2 ± 6.1 m/s.

Question: And the speed of sound (318.15 K, x2 = 0.4087)?
Answer: Its speed of sound is 1406.6 ± 6.1 m/s.

Question: What about the speed of sound (318.15 K, x2 = 0.5064) of the same molecule?
Answer: The speed of sound was 1415.2 ± 6.1 m/s.

Question: What about the speed of sound (318.15 K, x2 = 0.6027) of the same molecule?
Answer: The speed of sound was 1429.4 ± 6.1 m/s.

Question: And the speed of sound (318.15 K, x2 = 0.6981)?
Answer: The speed of sound was 1445.5 ± 6.1 m/s.

Question: And the speed of sound (318.15 K, x2 = 0.7966)?
Answer: The speed of sound was 1465.9 ± 6.1 m/s.

Question: What about the speed of sound (318.15 K, x2 = 0.8978) of the same molecule?
Answer: The speed of sound was 1490.6 ± 6.1 m/s.

Question: What about the mass density (318.15 K, x2 = 0) of the same molecule?
Answer: Its mass density is 903.83 ± 1 kg/m3.

Question: What about the mass density (318.15 K, x2 = 0.1084) of the same molecule?
Answer: Its mass density is 931.01 ± 1 kg/m3.

Question: And the mass density (318.15 K, x2 = 0.196)?
Answer: Its mass density is 951.01 ± 1 kg/m3.

Question: And the mass density (318.15 K, x2 = 0.3023)?
Answer: The mass density was 977.05 ± 1 kg/m3.

Question: What about the mass density (318.15 K, x2 = 0.4087) of the same molecule?
Answer: The mass density was 1005.86 ± 1 kg/m3.

Question: And the mass density (318.15 K, x2 = 0.5064)?
Answer: Its mass density is 1031.07 ± 1 kg/m3.

Question: And the mass density (318.15 K, x2 = 0.6027)?
Answer: Its mass density is 1060.13 ± 1 kg/m3.

Question: And the mass density (318.15 K, x2 = 0.6981)?
Answer: The mass density was 1089.38 ± 1 kg/m3.

Question: What about the mass density (318.15 K, x2 = 0.7966) of the same molecule?
Answer: The mass density was 1118.83 ± 1 kg/m3.

Question: And the mass density (318.15 K, x2 = 0.8978)?
Answer: Its mass density is 1150.62 ± 1.1 kg/m3.

Question: What about the speed of sound (323.15 K, x2 = 0) of the same molecule?
Answer: Its speed of sound is 1364 ± 6.1 m/s.

Question: And the speed of sound (323.15 K, x2 = 0.1084)?
Answer: Its speed of sound is 1372.3 ± 6.1 m/s.

Question: And the speed of sound (323.15 K, x2 = 0.196)?
Answer: Its speed of sound is 1376.7 ± 6.1 m/s.

Question: And the speed of sound (323.15 K, x2 = 0.3023)?
Answer: Its speed of sound is 1382.7 ± 6.1 m/s.

Question: And the speed of sound (323.15 K, x2 = 0.4087)?
Answer: Its speed of sound is 1391.8 ± 6.1 m/s.

Question: What about the speed of sound (323.15 K, x2 = 0.5064) of the same molecule?
Answer: Its speed of sound is 1400.8 ± 6.1 m/s.

Question: What about the speed of sound (323.15 K, x2 = 0.6027) of the same molecule?
Answer: The speed of sound was 1415.6 ± 6.1 m/s.

Question: And the speed of sound (323.15 K, x2 = 0.6981)?
Answer: Its speed of sound is 1432.2 ± 6.1 m/s.

Question: And the speed of sound (323.15 K, x2 = 0.7966)?
Answer: The speed of sound was 1453.3 ± 6.1 m/s.

Question: And the speed of sound (323.15 K, x2 = 0.8978)?
Answer: Its speed of sound is 1478.6 ± 6.1 m/s.

Question: And the mass density (323.15 K, x2 = 0)?
Answer: The mass density was 900.17 ± 1 kg/m3.

Question: And the mass density (323.15 K, x2 = 0.1084)?
Answer: The mass density was 927.39 ± 1 kg/m3.

Question: What about the mass density (323.15 K, x2 = 0.196) of the same molecule?
Answer: Its mass density is 947.4 ± 1 kg/m3.

Question: What about the mass density (323.15 K, x2 = 0.3023) of the same molecule?
Answer: Its mass density is 973.44 ± 1 kg/m3.

Question: And the mass density (323.15 K, x2 = 0.4087)?
Answer: The mass density was 1002.29 ± 1 kg/m3.

Question: What about the mass density (323.15 K, x2 = 0.5064) of the same molecule?
Answer: The mass density was 1027.48 ± 1 kg/m3.

Question: And the mass density (323.15 K, x2 = 0.6027)?
Answer: The mass density was 1056.67 ± 1 kg/m3.

Question: And the mass density (323.15 K, x2 = 0.6981)?
Answer: Its mass density is 1085.86 ± 1 kg/m3.

Question: And the mass density (323.15 K, x2 = 0.7966)?
Answer: Its mass density is 1115.32 ± 1 kg/m3.

Question: And the mass density (323.15 K, x2 = 0.8978)?
Answer: The mass density was 1147.1 ± 1.1 kg/m3.

Source: the NIST ThermoML archive (doi:10.1016/j.jct.2015.06.005)
